The test system of one data set is YAC-1 target cells. The data set can be described thus: Natural killer assay (^51Cr release), murine splenocytes against YAC-1. The format is cell-based. The settings on record: for % Cell Lysis: Balb/C splenocytes, ^51Cr loaded YAC-1 cells. On the procedure:
Murine spleen cell and human peripheral blood lymphocytes (PBLs) were obtained as described in the procedure for the Mitogen Assay.
Drugs and control substances were added, using sterile techniques, to the wells of a 24-well plate, using RPMI-10 as the culture medium. Spleen cells or human lymphocytes were added last to the wells at a concentration of 4×10^6 cells per 2 ml total volume in the well. Splenocyte incubation was usually three days (65-70 hours) while human lymphocyte stimulation may be extended to four to five days. The cells were incubated at 37° C. in a humidified 5% CO2 incubator.
On the day of harvest, 10^7 target cells were labeled with 150 μCi of ^51Cr (sodium chromate). Target cells used were YAC-I (murine Lymphoma) or K562 (human chronic myelogenous leukemia).
The cells were adjusted to 2×10^7 cells/ml in RPMI-10 and 150 μCi of ^51Cr were added to 500 μl of the target cell suspension (10^7 total cells) and incubated in a 5% CO2 humidified incubator for 1.5 hours. The labeled cells were washed three times with 10 ml RPMI-10 and then resuspended in 5 ml (2×10^6 cells/ml). Supernatants from washings of labeled cells were isolated and contained under lead shielding.
The stimulated effector cells were thoroughly mixed and removed from individual wells of the 24-well plate and transferred to tubes for centrifugation at 200×g. The supernatants were decanted and the pelleted cells washed once with 2 ml RPMI-10. The cells were finally resuspended in a total volume of 500 μl at approximately 8×10^6 cells/ml in RPMI-10.
One hundred microliters of the effector cell suspension (8×10^5 cells) were added in triplicate to a 96-well, V-bottom microplate. RPMI-10 was added to the wells designated for spontaneous release and total release of the target cells. One hundred microliters of the target cell suspension (1×10^4 cells/well) were added to the wells for a total volume of 200 μl. The “total release” wells contained 15 μl of 9% Triton X-100, 85 μl of RPMI-10, and 100 μl of target cells.
The 96-well plate was centrifuged at 150×g for four minutes to gently bring the effector and target cells in contact. The plate was then incubated in a humidified 5% CO2 incubator. After four hours, the assay plate was again centrifuged for five minutes at 250×g. One hundred microliters of the supernatant was carefully removed from each well and placed in 12 mm×75 mm glass tubes for counting in a gamma counter. The percent release was calculated using the following formula: […]
Addition of PT stimulates both murine splenocytes and human PBLs to kill tumor cells through lysis. This effect is enhanced in the presence of IL-2. Experimentally, the YAC-1 tumor cell line is routinely used as a target cell for murine NK cells, and the K562 cell line is used as the target for human PBLs. The human prostate cell line DU145 was also included in the test. The data set out in Table 5 show an activation of both murine and human NK cells by PT and IL-2. For these experiments, the drugs, PT and IL-2, were included in the cell suspension and incubated for 48 hours. After this period, the splenocyte suspension was mixed with the YAC-1 target cells that had been loaded with ^51Cr for four hours. The human PBLs were added to a K562 or DU-145 cell suspension that had been similarly loaded. After a 30-minute incubation, the radioactivity in the supernatant fluid was counted as a measure of lysis of the target cells, which reflects NK activity. […]

In the next data set the test system is IL-1. The data set can be described thus: ELISA of IL-1 production by splenocytes. The data set is classed as cell-based, Balb C murine. The following applies: 48 hours, PT 0.05 μg/ml. How it is done:
Identical plates are set up for an immunoassay and a mitogen assay. Mouse splenocytes and immuno-stimulating drugs are plated in duplicate wells (immunoassay) and triplicate wells (mitogen assay) in 96-well microplates as described above. The incubation at 37° C. in a humidified 5% CO2 incubator may vary from three to five days. At the end of the activation/proliferation period, the two identical plates are harvested as an immunoassay for cytokines or harvested as a mitogen assay (to which ^3H-thymidine has been added approximately 16-18 hours earlier).
Immunoassay kits used to detect IL-1β, IL-2, and IL-12 were the murine Quantikine M™ kits produced by R&D Systems (Minneapolis, Minn.). The general procedure is the same for all interleukin cytokines, and is described in the instructions provided by the manufacturer. All reagents are used at room temperature, and are prepared according to kit instructions.
The immunoassay plate is centrifuged at 200×g to pellet all cells. A 50 μl aliquot of Assay Diluent is first added to the center of each special enzyme-coated well supplied with the kit. Next, 50 μl of standard, control or test sample of supernatant from the immunoassay incubation plate is added to each well. This is incubated at room temperatures for two hours.
Liquid is aspirated from the wells, and the wells are washed five times with surfactant diluted 1:25 with distilled water. A 100 μL aliquot of Conjugate is added to each well and incubated two hours at room temperature. The wells are again aspirated and each well washed five times.
One hundred microliters of Substrate Solution are added to each well and incubated 30 minutes at room temperature. Stop Solution (100 μl) is then added to each well. The color change is light blue to yellow (activity). The plate is read for absorbence at 450 nm and at 540 nm for background readings.
To calculate the results, the duplicate readings for each pair of standard, control, and test samples are averaged and the average background optical density readings are subtracted. A standard curve is constructed for the cytokine by plotting the mean absorbence for each standard on the y-axis against the concentration on the x-axis and drawing a best-fit curve. Picograms of cytokine are determined from the standard curve. Mitogenic activity determined from the cpm of ^3H-thymidine is compared to the concentrations of cytokine in the experimental samples in the corresponding immunoassay.
One measure of macrophage activation is the production of the cytokine interleukin-1 (IL-1) and also interleukin-12 (IL-12). Incubation of 3×10^5 Balb C murine spleen cells with 0.05 μg/ml PT was performed for 48 hours. The supernatant fluid was assayed with commercial ELISA kits for IL-1 and IL-12. […] Some experiments gave less […] and some more. This is likely a reflection of the state of the immune system in the experimental mice. The addition of KLH, an effective antigen, increased both IL-1 and IL-12 production, and the addition of PT along with the KLH further increased the production of these cytokines.
(In an ELISA, binding on a coated surface is turned into a signal by an enzyme label.)

A short description of data set [1]: Stability of PT (temperature, proteases). The data set is classed as physicochemical.
In a further data set the test system is Balb C splenocytes. The data set can be described thus: Mitogen assay (^3H-thymidine uptake), murine splenocytes. The data set is classed as cell-based. The settings on record: for Cpm, standard mitogen assay: 0.1 μg/ml PT.

Where no end group is shown, it is not given here.

Turning to “Pyrularia thionin (KSCCRNTWARNCYNVCRLPGTISREICAKKCDCKIISGTTCPSDYPK; ends and bridges not checked; also: labeled with 125I) [PT]”, the “% Cell Lysis” value in the data set with YAC-1 target cells (0.01 μg/ml) is −0.9 ± 0.5%; in the data set on YAC-1 target cells (0.03 μg/ml), 2.1 ± 0.2%; in the data set on YAC-1 target cells (0.1 μg/ml) it was 1.8 ± 0.4%. For the same substance, in the data set with YAC-1 target cells (Swiss Webster murine splenocytes, YAC-1 targets, 48 hours with drugs, PT 0.01 μg/ml, IL-2 50 units/ml when present, effector to target ratio 80), the “% Cytotoxicity” value is 3.4 ± 0.9%. For the same substance, the IL-1 in the data set on IL-1 (Experiment 1, KLH 10 μg/ml, control 3.9) stood at 6.0 ± 0.2 pg/mL; in the data set with IL-1 (Experiment 3, control 2), 2.4 ± 0 pg/mL; in the data set with IL-1 (Experiment 4, KLH (20 mg/ml), control 9), 14 ± 0.9 pg/mL. Also, the “interaction with cell membranes after exposure to temperature” value in data set [1] (70° C.) was “not influenced”. For the same substance, the resistance to proteases result in data set [1] (common proteases found in blood) is listed as “resistant to the common proteases found in blood”. In “Immunogenicity of PT”, the immunogenicity entry is on record as “not immunogenic”. The “stimulation of the mitogen reaction” value in the data set with Balb C splenocytes (0.1 μg/ml (PT 20 nM; βME 40 nM)) is reported as “modest”. Also, the “Cpm, standard mitogen assay” value in the data set on Balb C splenocytes (GM-CSF (5 ng/ml)) is on record as 822 Cpm; in the data set on Balb C splenocytes (no GM-CSF), 243 Cpm.

For the origin of these results see patent publication US7572436B1, “Thionin as an antineoplastic and immunostimulant” (priority 2000, dated 2009).
